Earlier results as cited in patent US4144131A, “Immobilization of enzymes on human tissue or erythrocytes” (Wisconsin Alumni Research Foundation, priority 1974, dated 1979).

System: soybean lipoxygenase
Conditions: read-out: Km for oxygen, compared with oxygen concentrations in tumor tissue

- Km: 30 µM
Structure (SMILES): O=O [oxygen]
